From patent publication US20240150293A1, “SPIROCYCLOHEXANE DERIVATIVES, PHARMACEUTICAL COMPOSITIONS CONTAINING THEM AND THEIR USES AS ANTI-APOPTOTIC INHIBITORS” (LES LABORATOIRES SERVIER, priority 2021, published 2024) come the findings set out here.

Mcl-1 protein, sequence (Q07820 whole entry): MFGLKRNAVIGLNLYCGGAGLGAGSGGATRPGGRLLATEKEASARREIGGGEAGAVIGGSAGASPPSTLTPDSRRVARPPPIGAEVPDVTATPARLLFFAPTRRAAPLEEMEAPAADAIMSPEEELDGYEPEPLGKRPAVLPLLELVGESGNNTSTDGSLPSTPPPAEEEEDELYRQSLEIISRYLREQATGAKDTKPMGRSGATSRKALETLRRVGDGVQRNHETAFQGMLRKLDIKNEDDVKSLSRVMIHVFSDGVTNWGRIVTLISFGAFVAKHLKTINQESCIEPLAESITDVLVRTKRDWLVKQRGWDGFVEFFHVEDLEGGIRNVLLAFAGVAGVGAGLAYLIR

This test deals with Mcl-1 protein (UniProtKB Q07820) (Homo sapiens (Human), UniProt Q07820). The experiment in a line: Inhibition of Mcl-1 by the fluorescence polarisation assay (Example A, Method A). It counts as binding. The note with it: fluorescence polarization assay. The method, boiled down:
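Protein (5 nM) and fluorescein-tagged peptide tracer (1 nM) incubated with 11-point compound series for 2 h at room temperature in HEPES/NaCl/Tween 20 buffer, pH 7.4, 5% DMSO. Displacement read as decrease in polarisation; IC50 fitted by 4-parameter logistic, converted to Ki (cKi or eKi).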
One may read the Ki as a measure of affinity in units of concentration, obtained from inhibition or displacement. For `O=C(O)[C@]1(Nc2cccc(C(F)F)c2)CC[C@]2(CC1)C(Br)=Cc1ccccc12` [Example 83, (1s,4s)-2′-bromo-4-[3-(difluoromethyl)anilino]spiro[cyclohexane-1,1′-indene]-4-carboxylic acid], the Ki amounted to 1.36 µM.

Take `O=C(O)[C@]1(Nc2cccc(O)c2)CC[C@]2(CC1)C(Br)=Cc1ccccc12` [Example 84, (1s,4s)-2′-bromo-4-(3-hydroxyanilino)spiro[cyclohexane-1,1′-indene]-4-carboxylic acid]: the Ki was found to be 7.22 µM.

Turning to `COc1cccc(N[C@]2(C(=O)O)CC[C@@]3(CC2)C(Br)=Cc2ccccc23)c1` [Example 86, (1s,4s)-2′-bromo-4-(3-methoxyanilino)spiro[cyclohexane-1,1′-indene]-4-carboxylic acid], the Ki was 4.1 µM.

Take `O=C(O)[C@]1(Nc2cccnc2)CC[C@]2(CC1)C(Br)=Cc1ccccc12` [Example 87, (1s,4s)-2′-bromo-4-[(pyridin-3-yl)amino]spiro[cyclohexane-1,1′-indene]-4-carboxylic acid]: the Ki stood at 4.38 µM.

Consider `COc1ccc2c(c1)[C@]1(CC[C@@](Nc3cccc(Cl)c3)(C(=O)O)CC1)C1(CCCC1)C2` [Example 89, (1r,4r)-4-(3-chloroanilino)-6′-methoxy-3′H-dispiro[cyclohexane-1,1′-indene-2′,1″-cyclopentane]-4-carboxylic acid], for which the Ki amounted to 2.12 µM.

Consider `O=C(O)[C@]1(Nc2cccc(Cl)c2)CC[C@]2(CC1)C(C1CC1)=Cc1ccccc12` [Example 90, (1r,4r)-4-(3-chloroanilino)-2′-cyclopropylspiro[cyclohexane-1,1′-indene]-4-carboxylic acid], for which the Ki was determined as 2.15 µM.

On to `O=C(O)[C@]1(Nc2cccc(Cl)c2)CC[C@]2(CC1)C(=C1CCCC1)Cc1ccccc12` [Example 93, (1r,4r)-4-(3-chloroanilino)-2′-cyclopentylidene-2′,3′-dihydrospiro[cyclohexane-1,1′-indene]-4-carboxylic acid], for which the Ki was 7.31 µM.

With `COc1ccc2c(c1)[C@]1(CC[C@](Nc3cccc(Br)c3)(C(=O)O)CC1)C1(CCCC1)C2` [Example 94, (1s,4s)-4-(3-bromoanilino)-6′-methoxy-3′H-dispiro[cyclohexane-1,1′-indene-2′,1″-cyclopentane]-4-carboxylic acid], the Ki is 129 µM.

For the compound `COc1ccc2c(c1)[C@]1(CC[C@@](Nc3cccc(Br)c3)(C(=O)O)CC1)C1(CCCC1)C2` [Example 95, (1r,4r)-4-(3-bromoanilino)-6′-methoxy-3′H-dispiro[cyclohexane-1,1′-indene-2′,1″-cyclopentane]-4-carboxylic acid], the Ki worked out at 1.19 µM.

With `O=C(O)[C@]1(Nc2cccc(Cl)c2)CC[C@]2(CC1)C(C1CCC1)=Cc1ccccc12` [Example 96, (1r,4r)-4-(3-chloroanilino)-2′-cyclobutylspiro[cyclohexane-1,1′-indene]-4-carboxylic acid], the Ki stood at 4.5 µM.

For the compound `O=C(O)[C@]1(Nc2cccc(Cl)c2)CC[C@]2(CC1)C(C1CC(OCc3ccccc3)C1)=Cc1ccccc12` (stereo partly drawn) [Example 97, (1r,4r)-2′-[3-(benzyloxy)cyclobutyl]-4-(3-chloroanilino)spiro[cyclohexane-1,1′-indene]-4-carboxylic acid], the Ki was determined as 0.578 µM.

For `O=C(O)[C@]1(Nc2cccc(Cl)c2)CC[C@]2(CC1)C(C1CN(Cc3ccncc3)C1)=Cc1ccccc12` [Example 98, (1r,4r)-4-(3-chloroanilino)-2′-{1-[(pyridin-4-yl)methyl]azetidin-3-yl}spiro[cyclohexane-1,1′-indene]-4-carboxylic acid], the Ki was 10.4 µM.

In the case of `O=C(O)[C@]1(Nc2cccc(Cl)c2)CC[C@]2(CC1)C(C1CN(Cc3c(F)ccc(F)c3F)C1)=Cc1ccccc12` [Example 99, (1r,4r)-4-(3-chloroanilino)-2′-{1-[(2,3,6-trifluorophenyl)methyl]azetidin-3-yl}spiro[cyclohexane-1,1′-indene]-4-carboxylic acid], the Ki was 2.86 µM.

`O=C(O)[C@]1(Nc2cccc(Cl)c2)CC[C@@]2(CC1)c1ccccc1C[C@H]2C1CCC1` [Example 100, (1r,2′S,4S)-4-(3-chloroanilino)-2′-cyclobutyl-2′,3′-dihydrospiro[cyclohexane-1,1′-indene]-4-carboxylic acid]: the Ki came out at 2.62 µM.

Consider `O=C(O)[C@]1(Nc2cccc(Cl)c2)CC[C@@]2(CC1)c1ccccc1C[C@@H]2C1CCC1` [Example 101, (1r,2′R,4R)-4-(3-chloroanilino)-2′-cyclobutyl-2′,3′-dihydrospiro[cyclohexane-1,1′-indene]-4-carboxylic acid], for which the Ki worked out at 27 µM.

As to `O=C(O)[C@]1(Nc2cccc(Cl)c2)CC[C@]2(CC1)C(C1CN(CC(F)(F)F)C1)=Cc1ccccc12` [Example 102, (1r,4r)-4-(3-chloroanilino)-2′-[1-(2,2,2-trifluoroethyl)azetidin-3-yl]spiro[cyclohexane-1,1′-indene]-4-carboxylic acid], the Ki amounted to 10.7 µM.

For the compound `O=C(O)C1(Nc2cccc(Br)c2)CCC2(CC1)c1ccccc1-c1ccccc12` [Example 117, 4-[(3-bromophenyl)amino]spiro[cyclohexane-1,9′-fluorene]-4-carboxylic acid], the Ki is 5.76 µM.

`O=C(O)C1(Nc2cccc(Cl)c2)CCC2(CC1)c1ccccc1-c1ccccc12` [Example 118, 4-(3-chloroanilino)spiro[cyclohexane-1,9′-fluorene]-4-carboxylic acid]: the Ki stood at 3.99 µM.

Take `O=C(O)[C@]1(Nc2cccc(Br)c2)CC[C@@]2(CCCc3ccccc32)CC1` [Example 119, (1r,4s)-4-(3-bromoanilino)-3′,4′-dihydro-2′H-spiro[cyclohexane-1,1′-naphthalene]-4-carboxylic acid]: the Ki is 0.836 µM.

In the case of `O=C(O)[C@]1(Nc2cc(Cl)cc(Cl)c2)CC[C@@]2(CCCc3ccccc32)CC1` [Example 120, (1r,4s)-4-[(3,5-dichlorophenyl)amino]-3′,4′-dihydro-2′H-spiro[cyclohexane-1,1′-naphthalene]-4-carboxylic acid], the Ki was found to be 19.3 µM.

On to `C=CCOC1Cc2ccccc2[C@]12CC[C@@](Nc1cccc(Br)c1)(C(=O)O)CC2` (stereo partly drawn) [Example 121, (1s,4s)-4-(3-bromoanilino)-2′-[(prop-2-en-1-yl)oxy]-2′,3′-dihydrospiro[cyclohexane-1,1′-indene]-4-carboxylic acid], for which the Ki is 1.55 µM.

For the compound `C=CCOC1Cc2ccccc2[C@]12CC[C@@](Nc1cccc(Cl)c1)(C(=O)O)CC2` (stereo partly drawn) [Example 122, (1s,4s)-4-(3-chloroanilino)-2′-[(prop-2-en-1-yl)oxy]-2′,3′-dihydrospiro[cyclohexane-1,1′-indene]-4-carboxylic acid], the Ki stood at 3.77 µM.

With `Cc1ccc(C)c2c1CC(C)C21CCC(Nc2cccc(Br)c2)(C(=O)O)CC1` (stereo not drawn) [Example 123, 4-(3-bromoanilino)-2′,4′,7′-trimethyl-2′,3′-dihydrospiro[cyclohexane-1,1′-indene]-4-carboxylic acid], the inhibition constant (Ki) is 6.4 µM.

Turning to `CC1=Cc2cc(Cl)ccc2C12CCC(Nc1cccc(Br)c1)(C(=O)O)CC2` (stereo not drawn) [Example 124, 4-(3-bromoanilino)-5′-chloro-2′-methylspiro[cyclohexane-1,1′-indene]-4-carboxylic acid], the inhibitory constant (Ki) is 1.29 µM.
